Experiment [1] concerns silkworm eggs. The settings on record: cited from earlier work; for hatching rate: silkworm eggs 20 h after oviposition, 15% acid treatment (Manqiao Jiang et al.).
For experiment [2], the system named is silkworm eggs of a "Liangguang 2" quaternary hybrid. In words: Feeding results of larvae after treating silkworm eggs by warm water hatching and hydrochloric acid hatching. The format is in vivo, Bombyx mori. To be noted: eggs treated 18 h after laying, larvae fed after hatching. Here is the method:
18 h after laying eggs, silkworm eggs of a “Liangguang 2” quaternary hybrid were treated in a hydrochloric acid solution (at a specific gravity of 1.075, 46° C.) for 5 min, followed by taking out for air-drying, incubation and hatching. Statistics was conducted on cocooning rate, whole cocoon weight, cocoon shell weight, cocoon shell rate and 10,000-silkworm cocoon weight.
18 h after laying eggs, silkworm eggs of a “Liangguang 2” quaternary hybrid were treated in a 50° C. warm aqueous solution (containing 0.2 g/L of chitosan, 0.1 g/L of hydroxypropyl cellulose and 0.1 g/L of γ-aminobutyric acid) for 20 s, followed by taking out for air-drying, incubation and hatching. Statistics was conducted on cocooning rate, whole cocoon weight, cocoon shell weight, cocoon shell rate and 10,000-silkworm cocoon weight.

The subject of experiment [3] is silkworm eggs. As to the kind of experiment: Practical hatching rate of silkworm eggs after immersion treatment. The settings on record: "Liangguang 2" quaternary hybrid, 18 h after laying, specific gravity 1.075, 46° C. for 5 min. The format is in vivo, Bombyx mori.
Procedure: After laying eggs, “Liangguang 2” silkworm eggs were placed at 25° C.±1° C. and a humidity of 80%±5% for protection; the silkworm eggs with egg ages of 11 h, 13 h, 15 h, 17 h, 19 h, 21 h and 23 h were placed in an aqueous solution (containing 0.2 g/L of chitosan, 0.1 g/L of hydroxypropyl cellulose and 0.1 g/L of γ-aminobutyric acid) and then treated at 50° C. for 15 s, followed by taking out and air-drying for 25 min; and the silkworm eggs were subjected to incubation and hatching, wherein 3 replicates were set for each treatment. A practical hatching rate was calculated according to formula I, and an egg age-practical hatching rate curve was drawn. Practical hatching rate (%)=number of newly-hatched silkworms in two days/the total number of good eggs×100% formula I
17 h after laying eggs, silkworm eggs of a “Liangguang 2” quaternary hybrid were treated in a 50° C. aqueous solution (containing 0.1 g/L of chitosan, 0.2 g/L of hydroxypropyl cellulose and 0.05 g/L of γ-aminobutyric acid) for 20 s, followed by taking out for air-drying, incubation and hatching.
A practical hatching rate was counted. […]

Where two headings read alike, the source gives them in different places.

The values that follow come from patent US12058988B2, “Warm water immersion-based hatching method of silkworm eggs” (Sericulture and Agri-Food Research Institute, Guangdong …, priority 2021, dated 2024).

In the case of `CC(=O)O` [acetic acid], in experiment [1], the hatching rate result is “relatively low hatching rate”.
Take `C[S+](C)[O-]` [dimethyl sulfoxide]: the “effect of preventing diapause” value in experiment [1] (Yamamoto et al.) was 78%.
In the case of `O=[N+]([O-])O` [nitric acid], the hatching rate result in experiment [1] is “not less than 95%”.
On to `Cl` [hydrochloric acid], for which, in experiment [2], the “10,000-silkworm cocoon weight” value is given as 13.05 kg, the Cocoon shell rate turned out to be 19.42%, the Cocoon shell weight came to 0.26 g and the Cocooning rate stood at 96.27%. In experiment [2], this compound had a Whole cocoon weight of 1.35 g. Moreover, in experiment [3], the hatching rate came to 95.86%.
Regarding `O=P(O)(O)O` [phosphoric acid], the hatching rate result in experiment [1] is “relatively low hatching rate”.
